Reference: US20250326748A1, “COMPOUNDS AND METHODS FOR MODULATING SPLICING” (REMIX THERAPEUTICS INC., priority 2022, published 2025)
Like-named read-outs stand apart in the source and are kept apart here.

Columns and labels:
MYB mRNA = test: Splicing RT-qPCR assay, MYB canonical (CJ) and alternative (AJ) junction mRNA; assay type: cell-based, human; conditions: Homo sapiens; for IC50: canonical junction mRNA; for AC50: alternative junction mRNA, read-out: MYB AJ (AC50, increase in AJ mRNA)
Method in brief: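 A673 cells (DMEM, 10% FBS) or K562 cells (IMDM, 10% FBS) were treated for 24 h at 37° C with an 11-point 3-fold dilution series, top dose 10 uM, DMSO ≤0.25%. Canonical and alternative junction mRNA was measured in lysates by one-step RT-qPCR. Normalization used PPIA for A673 and GAPDH or GUSB for K562.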

HiBiT-tagged MYB protein = test: HiBiT protein abundance assay, MYB (K562 HiBiT knock-in); assay type: cell-based, human; conditions: HiBiT knock-in cells, 24 hours
Method in brief: (§1)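 Endogenously HiBiT-tagged K562 knock-in lines treated 24 h at 37 °C with 10-point 3-fold dilutions (top 10 μM final, DMSO ≤0.25%) in IMDM+1% FBS. Lytic Nano-Glo luminescence normalized to DMSO and unmodified K562 controls; four-parameter fit gives 50%-abundance concentration (IC50).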

HiBiT-tagged HTT protein = test: HiBiT protein abundance assay, HTT (K562 HiBiT knock-in); assay type: cell-based, human; conditions: HiBiT knock-in cells, 24 hours
Method in brief: as §1

Target C = test: HiBiT protein abundance assay, Target C (K562 HiBiT knock-in); assay type: cell-based, human; conditions: HiBiT knock-in cells, 24 hours
Method in brief: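 K562 HiBiT knock-in cells (10000/well) in IMDM + 1% FBS were treated for 24 h at 37° C. with a 10-point 3-fold dilution series (top 10 μM final), with DMSO ≤0.25%. Unmodified K562 served as baseline. HiBiT lytic luminescence was normalized to controls, and IC50 was interpolated at 50% from a four-parameter fit.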

K562 cells = test: Cell viability, Cell Titer Glo 2.0 assay, K562; conditions: 72 hours
[1] = qPCR panel, read-out: MYB CJ (decrease in CJ mRNA levels, IC50)
[2] = RT-qPCR, A673 or K562 cells, 24 hours treatment
[3] = RT-qPCR, A673 or K562 cells, 24 hours treatment, read-out: MYB CJ (IC50, decrease in CJ mRNA)

Compound: C[C@@H]1CN(c2cnc3nc(-c4cc5cn(C)nc5cc4O)ccc3c2)C[C@H](C)N1 [Compound 343]
- IC50 (MYB mRNA; [1]): 0.1 to 1 µM
- AC50 (MYB mRNA; [2]): 0.1 to 1 µM
- IC50 (MYB mRNA; [3]): 0.1 to 1 µM
- IC50 (HiBiT-tagged MYB protein): 0.1 to 1 µM
- IC50 (HiBiT-tagged HTT protein): 1 to 10 µM
- IC50 (Target C): 1 to 10 µM
- Effect on Cell Viability, K562 (K562 cells): B (100-1000 nM)

Compound: Cc1cn2nc(-c3cc(Cl)c4cc(N5CCC(N(C)C)CC5)cnc4n3)cc(C)c2n1 [Compound 348]
- IC50 (MYB mRNA; [1]): 0.1 to 1 µM
- AC50 (MYB mRNA; [2]): 0.1 to 1 µM
- IC50 (MYB mRNA; [3]): 0.1 to 1 µM
- IC50 (HiBiT-tagged MYB protein): < 0.1 µM
- IC50 (HiBiT-tagged HTT protein): 0.1 to 1 µM
- IC50 (Target C): 0.1 to 1 µM
- Effect on Cell Viability, K562 (K562 cells): B (100-1000 nM)

Compound: Cc1cn2nc(-c3cc(Cl)c4cc(N5CCC(N6CCC6)CC5)cnc4n3)cc(C)c2n1 [Compound 349]
- IC50 (MYB mRNA; [1]): 0.1 to 1 µM
- AC50 (MYB mRNA; [2]): 0.1 to 1 µM
- IC50 (MYB mRNA; [3]): 0.1 to 1 µM
- IC50 (HiBiT-tagged MYB protein): < 0.1 µM
- IC50 (HiBiT-tagged HTT protein): 0.1 to 1 µM
- IC50 (Target C): 0.1 to 1 µM
- Effect on Cell Viability, K562 (K562 cells): B (100-1000 nM)

Compound: Cc1cn2cc(-c3ccc4cc(N5C[C@@H](C)N[C@@H](C)C5)cnc4n3)cc(F)c2n1 [Compound 350]
- IC50 (MYB mRNA; [1]): 0.1 to 1 µM
- AC50 (MYB mRNA; [2]): 1 to 10 µM
- IC50 (MYB mRNA; [3]): 0.1 to 1 µM
- IC50 (HiBiT-tagged MYB protein): 0.1 to 1 µM
- IC50 (HiBiT-tagged HTT protein): 1 to 10 µM
- IC50 (Target C): 1 to 10 µM
- Effect on Cell Viability, K562 (K562 cells): C (1000-9999 nM)

Compound: Cc1c(O)c(-c2cc(Cl)c3cc(N4CCNC5(CC5)C4)cnc3n2)cc2cn(C)nc12 [Compound 381]
- IC50 (MYB mRNA; [1]): < 0.1 µM
- AC50 (MYB mRNA; [2]): < 0.1 µM
- IC50 (MYB mRNA; [3]): < 0.1 µM
- IC50 (HiBiT-tagged MYB protein): < 0.1 µM
- IC50 (HiBiT-tagged HTT protein): 0.1 to 1 µM
- IC50 (Target C): 1 to 10 µM
- Effect on Cell Viability, K562 (K562 cells): B (100-1000 nM)

Compound: Cc1cn2nc(-c3ccc4c(Cl)c(N5C[C@H](C)N[C@@H](C)C5)cnc4n3)cc(C)c2n1 [Compound 393, 5-chloro-2-{2,8-dimethylimidazo[1,2-b]pyridazin-6-yl}-6-[(3S,5S)-3,5-dimethylpiperazin-1-yl]-1,8-naphthyridine]
- IC50 (MYB mRNA; [1]): < 0.1 µM
- AC50 (MYB mRNA; [2]): < 0.1 µM
- IC50 (MYB mRNA; [3]): < 0.1 µM
- IC50 (HiBiT-tagged MYB protein): < 0.1 µM
- IC50 (HiBiT-tagged HTT protein): 0.1 to 1 µM
- IC50 (Target C): 0.1 to 1 µM
- Effect on Cell Viability, K562 (K562 cells): B (100-1000 nM)
